Entries after “also recorded” stand apart in the source; their conditions may differ.
Tests used:
[1] = test system: splenocytes co-cultured with Myc-inhibited B16 tumor cells; assay: ProcartaPlex multiplex immunoassay of splenocyte/B16 co-cultures; format: cell-based, mouse
Description: To further investigate the influence of tumor secreted apoE on immune cell function, immunogenic B16 tumor cells (B16 cells treated with Myc inhibitors (0.25 μM BET+0.25 μM JQ1 for 4 days) were irradiated at 60 Gray and co-cultured with naïve C57/BL6 splenocytes in the presence of either apoE mimetic COG133 at 0.3, 3 and 9 μM or anti-APOE blocking antibody at 1, 10 and 30 μg/ml concentrations. Prior work has shown the immunogenic effect of treating cancer cells with Myc inhibitors and irradiation. IFNγ production was quantified by ELISA at 48 h. Splenocytes produced high levels of IFNγ when co-cultured with Myc-inhibited immunogenic B16 cells as shown in FIGS. 3A-3C. Exposure of these cells to apoE mimetic COG133 repressed IFNγ production (6-fold reduction) (FIG. 3A), while the presence of Anti-APOE antibody enhanced IFNγ production (3-fold increase) (FIG. 3B). We also tested IFNγ production from vaccinated splenocytes following co-culture with treated and untreated B16 cells in the presence of COG 133. To obtain vaccinated splenocytes, 10^4 WT B16 tumor cells and 100 μg/ml anti-CTLA4 antibody were administered to C57BL/6 mice on day 0, and splenocytes were collected at day 7 after tumor cell inoculation. Compared with naïve splenocytes, vaccinated splenocytes produced dramatically greater level of IFNγ, especially when they were co-cultured with Myc inhibited B16 tumor cells. […] In addition to IFNγ, we also quantified other cytokine/chemokines using ProcartaPlex multiplex immunoassay. […] Within these 14 cytokines, four of them including IFN[…], IL6, IL18 and RANTES (CCL5) were suppressed after exposure to apoE peptide mimetic COG133 in a dose dependent manner (FIG. 17).
(§1) Cell culture supernatant was collected after centrifuge at 1,200 rpm for 10 min at 4° C. The concentrations of the following immune molecules were determined using the mouse Cytokine & Chemokine 36-plex ProcartaPlex Panel, a magnetic bead-based multiplex immunoassay (Thermo Scientific) following our previous protocol(19). Briefly, cell culture supernatant samples were mixed with antibody-linked polystyrene beads on a 96-well plate and incubated at room temperature (RT) for 2 h on an orbital shaker at 500 rpm. After washing, plates were incubated with biotinylated detection antibody for 30 min at RT. Plates were then washed twice and then labeled beads were resuspended in streptavidin-PE. Each sample was measured in duplicate along with standards (8-point dilutions) and the buffer control. Plates were read using a Luminex Bio-plex 200 system (Bio-Rad Corp.) for quantitative analysis.

[2] = test system: naïve C57/BL6 splenocytes co-cultured with immunogenic B16 tumor cells; assay: IFNγ ELISA, naïve splenocytes co-cultured with Myc-inhibited immunogenic B16 tumor cells; format: cell-based, mouse
Description: To further investigate the influence of tumor secreted apoE on immune cell function, immunogenic B16 tumor cells (B16 cells treated with Myc inhibitors (0.25 μM BET+0.25 μM JQ1 for 4 days) were irradiated at 60 Gray and co-cultured with naïve C57/BL6 splenocytes in the presence of either apoE mimetic COG133 at 0.3, 3 and 9 μM or anti-APOE blocking antibody at 1, 10 and 30 μg/ml concentrations. Prior work has shown the immunogenic effect of treating cancer cells with Myc inhibitors and irradiation. IFNγ production was quantified by ELISA at 48 h. Splenocytes produced high levels of IFNγ when co-cultured with Myc-inhibited immunogenic B16 cells as shown in FIGS. 3A-3C. Exposure of these cells to apoE mimetic COG133 repressed IFNγ production (6-fold reduction) (FIG. 3A), while the presence of Anti-APOE antibody enhanced IFNγ production (3-fold increase) (FIG. 3B). We also tested IFNγ production from vaccinated splenocytes following co-culture with treated and untreated B16 cells in the presence of COG 133. […] In addition to IFNγ, we also quantified other cytokine/chemokines using ProcartaPlex multiplex immunoassay. […]
WT and apoE^−/− mice or WT and lrp8^−/− mice, were inoculated with either WT B16 or apoE^−/− B16 cells, with anti-CTLA4 antibody on day 0. […] Readings were measured at 450 nm using the EnSpire 2300 Multilabel plate reader (Perkin Elmer, Waltham, Massachusetts, US).

[3] = test system: Mouse bone-marrow derived dendritic cells (DC); assay: Cytokine production of TLR7/8 activated bone-marrow derived dendritic cells, multiplex ELISA; format: cell-based; conditions: 48 hr
Description: Mouse bone-marrow derived dendritic cells (DC) were cultured in the presence of the indicated concentrations of apoE agonist COG133 for 48 hr. COG133 increased the production of anti-inflammatory IL-10, GM-CSF, and chemokines MCP-1 and MCP-3 by TLR7/8 activated DC while decreasing the levels of proinflammatory cytokines IL-1α, IL-1β and IL-23 in a dose-dependent manner as determined by multiplex ELISA.
as §1

Substance: COG133: a fragment of apoE peptide, which competes with the apoE holoprotein for binding the LDL receptors and acts as an apoE mimetic
- IL-13, IL-4, IL22, IL18, MCP-1, RANTES and Gro-α, WT vaccinated splenocytes ([1]; co-culture with Myc-inhibited B16 cells 48 hr, multiplex immunoassay (FIG. 18)): suppression
- production of IFNγ, IL-6 and IL-18, naïve splenocytes ([1]; co-cultures with naïve splenocytes, 48 hr, multiplex ELISA (FIG. 17)): suppressive effect
- production of IFNγ, IL-6 and IL-18, vaccinated splenocytes ([1]; co-cultures with vaccinated splenocytes, 48 hr, multiplex ELISA (FIG. 17)): diminished in vaccinated splenocytes is still observed
- IFNγ, IL6, IL18 and RANTES (CCL5) production ([1]; splenocytes + Myc-inhibited B16 cells, multiplex immunoassay, dose dependent manner): suppressed
- splenocyte production of IFNγ in presence of COG133 ([2]; naïve and vaccinated splenocytes + BET/JQ1 treated B16 cells (FIG. 3A)): markedly reduced
- IFNγ production, reduction ([2]; naïve splenocytes + Myc-inhibited irradiated B16 cells, COG133 at 0.3, 3 and 9 μM, ELISA at 48 h): 6 fold
- IL-1α, IL-1β and IL-23 levels of activated DC ([3]; dose dependent): suppressed; also recorded: decreasing
- secretion of anti-inflammatory cytokine IL-10 from activated DC ([3]; dose dependent): induced secretion
- production of IL-10, GM-CSF, MCP-1 and MCP-3 by TLR7/8 activated DC ([3]; indicated concentrations, multiplex ELISA (FIG. 16)): increased

Reference: US20250011404A1, “TARGETING APOE ENHANCES T-CELL KILLING IN CANCER IMMUNOTHERAPY” (Children's National Medical Center, priority 2021, published 2025)
